Measurements published in patent US12473262B2, “Aryl hydrocarbon receptor activators” (Oregon State University, priority 2019, dated 2025).

Target: aryl hydrocarbon receptor (AhR) (Mus musculus (Mouse), UniProt P30561)
Assay: AhR ligand screening: AhRE-luciferase reporter in transfected Hepa1 cells
Format: cell-based
Details: for Fold @ 1 nM: fold change of luciferase expression at 1 nM test compound relative to vehicle (0.1% DMSO); for Fold @ 100 nM: fold change of luciferase expression at 100 nM test compound relative to vehicle (0.1% DMSO); for Fold @ 10 uM: fold change of luciferase expression at 10 uM test compound relative to vehicle (0.1% DMSO); for Fold relative to benchmark @ 100 nM: luciferase expression at 100 nM test compound relative to 100 nM benchmark compound 11-cl-BBQ
Text: The AhR is a ligand-activated transcription factor that dimerizes with ARNT to regulate gene expression, and genes that are regulated by AhR ligands have AhR response elements (AhRE) in their promotor regions.
Briefly, Hepa1 cells were transfected with a reporter construct consisting of AhRE linked to luciferase. The addition of AhR ligands to the transfected cells induces luciferase production that is directly proportional to the amount of AhR activation. We used this reporter system to identify novel compounds with AhR-activating properties. Transfected Hepa1 cells were plated at a density of 1×10^4 cells/well in 100 μL of cell culture media in 96 well plates and grown overnight. […] Following incubation with the compounds, the media was removed, and cells were harvested with lysis buffer. The lysates were transferred to opaque 96 well plates, where they were assayed well-by-well for luciferase activity by injection of luciferase assay substrate with a 2 sec mixing time and 15 sec integration period on a Tropix TR717 microplate luminometer. Data were expressed as fold induction of luciferase relative to vehicle (0.1% DMSO) treated cells.

Chain of aryl hydrocarbon receptor (AhR) (P30561 10-805): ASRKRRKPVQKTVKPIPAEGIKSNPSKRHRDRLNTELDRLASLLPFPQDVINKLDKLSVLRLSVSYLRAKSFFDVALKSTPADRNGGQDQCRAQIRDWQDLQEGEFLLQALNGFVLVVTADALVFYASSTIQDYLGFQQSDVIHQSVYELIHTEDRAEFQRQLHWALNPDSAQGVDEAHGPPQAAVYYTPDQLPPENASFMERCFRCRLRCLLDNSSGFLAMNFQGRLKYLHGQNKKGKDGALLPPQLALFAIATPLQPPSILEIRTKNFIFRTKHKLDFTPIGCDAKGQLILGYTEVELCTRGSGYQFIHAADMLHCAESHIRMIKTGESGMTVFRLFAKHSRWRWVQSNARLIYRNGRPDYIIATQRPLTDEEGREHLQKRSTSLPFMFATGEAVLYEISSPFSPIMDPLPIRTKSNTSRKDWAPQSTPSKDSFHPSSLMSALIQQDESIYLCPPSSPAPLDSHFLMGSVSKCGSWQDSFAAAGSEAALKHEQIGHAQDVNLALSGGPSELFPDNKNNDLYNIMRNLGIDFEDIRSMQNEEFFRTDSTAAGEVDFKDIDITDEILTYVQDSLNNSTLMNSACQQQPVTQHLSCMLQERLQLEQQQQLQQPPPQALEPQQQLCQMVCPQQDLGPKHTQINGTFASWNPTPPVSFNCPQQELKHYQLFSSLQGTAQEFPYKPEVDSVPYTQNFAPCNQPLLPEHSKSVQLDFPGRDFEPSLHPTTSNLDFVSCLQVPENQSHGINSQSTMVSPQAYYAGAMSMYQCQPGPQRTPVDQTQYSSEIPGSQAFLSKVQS
Chain of aryl hydrocarbon receptor (AhR) (P53762 whole entry partner): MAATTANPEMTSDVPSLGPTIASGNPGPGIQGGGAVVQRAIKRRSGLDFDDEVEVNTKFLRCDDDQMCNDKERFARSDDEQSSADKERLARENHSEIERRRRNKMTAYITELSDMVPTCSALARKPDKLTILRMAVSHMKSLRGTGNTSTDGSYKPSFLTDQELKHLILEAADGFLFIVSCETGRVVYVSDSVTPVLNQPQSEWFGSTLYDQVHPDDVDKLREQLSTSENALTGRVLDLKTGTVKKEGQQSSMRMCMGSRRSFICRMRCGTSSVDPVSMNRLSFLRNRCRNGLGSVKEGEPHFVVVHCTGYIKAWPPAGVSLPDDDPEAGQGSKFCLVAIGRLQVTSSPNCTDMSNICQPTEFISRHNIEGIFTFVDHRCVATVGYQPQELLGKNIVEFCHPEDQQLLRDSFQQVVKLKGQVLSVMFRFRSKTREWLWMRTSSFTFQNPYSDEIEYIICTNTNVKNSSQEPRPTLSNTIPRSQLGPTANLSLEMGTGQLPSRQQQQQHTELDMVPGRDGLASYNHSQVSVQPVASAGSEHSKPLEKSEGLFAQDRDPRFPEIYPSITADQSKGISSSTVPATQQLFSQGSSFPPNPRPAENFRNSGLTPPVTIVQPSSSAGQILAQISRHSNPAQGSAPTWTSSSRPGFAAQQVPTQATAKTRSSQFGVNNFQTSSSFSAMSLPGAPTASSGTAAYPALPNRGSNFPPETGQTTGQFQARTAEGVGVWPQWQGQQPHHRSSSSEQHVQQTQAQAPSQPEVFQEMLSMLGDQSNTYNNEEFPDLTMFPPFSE

Fold @ 1 nM	Fold @ 100 nM	Fold @ 10 uM	Fold relative to benchmark @ 100 nM	SMILES
1 fold	2 fold	3 fold	0.07 fold	COC(=O)c1ccc2nc(-c3cccc4ccccc34)n(S(=O)(=O)c3ccc(C(F)(F)F)cc3)c2c1 [Compound 1402]
1 fold	1 fold	3 fold	0.03 fold	O=C(c1ccc2nc(-c3cccc4ccccc34)n(S(=O)(=O)c3ccc4ccccc4c3)c2c1)N1CCOCC1 [Compound 1389]
1 fold	1 fold	14 fold	0.02 fold	Fc1ccc(Cn2c(-c3cccc4ccccc34)nc3cc(Cl)ccc32)cc1F [Compound 887]
1 fold	1 fold	4 fold	0.03 fold	CN1CCN(C(=O)c2ccc3nc(-c4cccc5ccccc45)n(S(=O)(=O)c4cccc(F)c4)c3c2)CC1 [Compound 1393]
1 fold	1 fold	3 fold	0.03 fold	COc1ccccc1S(=O)(=O)n1c(-c2cccc3ccccc23)nc2cc(C(=O)N3CCCCC3)ccc21 [Compound 1390]
1 fold	1 fold	2 fold	0.02 fold	O=C(c1ccc(C(F)(F)F)cc1)c1c[nH]c2ccc(Cl)cc12 [Compound 883]
1 fold	1 fold	2 fold	0.03 fold	COC(=O)c1ccc2c(c1)nc(-c1cccc3ccccc13)n2S(=O)(=O)c1ccc(C(F)(F)F)cc1 [Compound 1401]
1 fold	7 fold	52 fold	0.13 fold	N#Cc1ccc(C(=O)c2c[nH]c3ccc(Cl)cc23)cc1 [Compound 874]
1 fold	2 fold	11 fold	0.07 fold	COC(=O)c1ccc2c(c1)nc(-c1cccc3ccccc13)n2C(=O)c1ccc(Cl)cc1Cl [Compound 1328]
1 fold	1 fold	4 fold	0.03 fold	CN1CCN(C(=O)c2ccc3c(c2)nc(-c2cccc4ccccc24)n3S(=O)(=O)c2cccc(F)c2)CC1 [Compound 1392]
1 fold	2 fold	18 fold	0.04 fold	O=C(c1ccc(OC(F)(F)F)cc1)c1c[nH]c2ccc(Cl)cc12 [Compound 881]
1 fold	1 fold	1 fold	0.03 fold	COc1ccccc1S(=O)(=O)n1c(-c2cccc3ccccc23)nc2ccc(C(=O)N3CCCCC3)cc21 [Compound 1391]
1 fold	2 fold	13 fold	0.07 fold	COC(=O)c1ccc2nc(-c3cccc4ccccc34)n(S(=O)(=O)c3ccc4ccccc4c3)c2c1 [Compound 1384]
1 fold	1 fold	4 fold	0.03 fold	O=C(c1ccc2nc(-c3cccc4ccccc34)n(S(=O)(=O)c3ccc(C(F)(F)F)cc3)c2c1)N1CCOCC1 [Compound 1370]
1 fold	2 fold	18 fold	0.07 fold	COC(=O)c1ccc2[nH]c(-c3cccc4ccccc34)nc2c1 [Compound 1360]
1 fold	1 fold	1 fold	0.03 fold	O=C(c1ccc2c(c1)nc(-c1cccc3ccccc13)n2Cc1ccc(F)c(F)c1)N1CCOCC1 [Compound 1329]

Further lines, the molecule ahead of its results:

SMILES	Fold @ 1 nM	Fold @ 100 nM	Fold @ 10 uM	Fold relative to benchmark @ 100 nM
Clc1ccc2c(c1)nc(-c1cccc3ccccc13)n2Cc1ccccc1 [Compound 533, 1-benzyl-5-chloro-2-(naphthalen-1-yl)-1H-benzimidazole]	1 fold	1 fold	13 fold	0.03 fold
COc1ccc(-c2nc3cc(Cl)ccc3n2C(=O)c2ccccc2)cc1 [Compound 496]	1 fold	1 fold	3.5 fold	0.03 fold
O=C(c1ccncc1)n1c(-c2ccccc2)nc2ccc(Cl)cc21 [Compound 431]	1 fold	1 fold	8 fold	0.03 fold
O=C(c1ccncc1)n1c(-c2ccccc2)nc2cc(Cl)ccc21 [Compound 432]	1 fold	1 fold	7 fold	0.03 fold
O=C(c1ccc(F)c(F)c1)n1c(-c2cccc(-c3ccccc3)c2)nc2cc(Cl)ccc21 [Compound 771]	1 fold	1 fold	2 fold	0.04 fold
Cc1ccc2c(c1)nc(-c1cccc3ccccc13)n2C(=O)c1ccccc1 [Compound 701]	1 fold	2 fold	35 fold	0.08 fold
O=C(c1cccc2ccccc12)c1c[nH]c2ccc(Cl)cc12 [Compound 364, (5-chloro-1H-indol-3-yl)(naphthalen-1-yl)methanone]	1 fold	2 fold	11 fold	0.05 fold
N#Cc1ccc(C(=O)n2c(-c3cccc4ccccc34)nc3cc(Cl)ccc32)cc1 [Compound 688]	2 fold	28 fold	44 fold	1.08 fold
COc1ccc(C(=O)n2c(-c3cc4ccccc4s3)nc3ccc(Cl)cc32)cc1 [Compound 591]	2 fold	2 fold	38 fold	0.13 fold
N#Cc1ccc2c(c1)nc(-c1cccc3ccccc13)n2C(=O)c1ccccc1 [Compound 770]	1 fold	2 fold	2 fold	0.08 fold
O=C(c1ccccc1)n1c(-c2cccc(C(F)(F)F)c2)nc2ccc(Cl)cc21 [Compound 789]	1 fold	3 fold	8 fold	0.12 fold
O=C(c1ccc(F)c(F)c1)n1c(-c2ccc(F)c(Cl)c2)nc2cc(Cl)ccc21 [Compound 580]	1 fold	3 fold	14 fold	0.2 fold
O=C(c1ccc(F)c(F)c1)n1c(-c2ccc(F)c3ccccc23)nc2cc(Cl)ccc21 [Compound 792]	1 fold	2 fold	19 fold	0.08 fold
O=C(c1ccccc1)n1c(-c2ccc3ccccc3c2)nc2cc(F)ccc21 [Compound 584]	1 fold	3 fold	31 fold	0.2 fold
O=C(c1ccccc1)n1c(-c2ccc(F)cc2)nc2ccc(Cl)cc21 [Compound 493]	1 fold	1 fold	16 fold	0.03 fold
O=C(c1ccc(F)c(F)c1)n1c(-c2cccc3ccccc23)nc2ccc(Br)cc21 [Compound 690]	2 fold	22 fold	30 fold	0.85 fold
Fc1cccc(F)c1Cn1c(-c2cccc3ccccc23)nc2cc(Cl)ccc21 [Compound 871]	1 fold	1 fold	12 fold	0.02 fold
O=C(c1ccc(F)c(F)c1)n1c(-c2cccc(C(F)(F)F)c2)nc2cc(Cl)ccc21 [Compound 788]	1 fold	2 fold	19 fold	0.08 fold
O=C(c1ccccc1)n1c(-c2cccc(C(F)(F)F)c2)nc2cc(Cl)ccc21 [Compound 763]	1 fold	2 fold	22 fold	0.08 fold
O=C(C1CCCCC1)n1c(-c2cc3ccccc3o2)nc2cc(Cl)ccc21 [Compound 859]	1 fold	12 fold	80 fold	0.41 fold
COc1ccc(C(=O)n2c(-c3cc4ccccc4s3)nc3cc(Cl)ccc32)cc1 [Compound 590]	1 fold	3 fold	45 fold	0.2 fold
